From PMC12375108 (Nature Communications, 2025)

Columns and labels:
Type in all cases: binding
[1] = target: T1, H. sapiens hinT H112N (human hinT^HN) (Homo sapiens, UniProt P49773, H112N); test: competition pulldown with sucA-AMP, α-AMP immunoblot; details: GST-tagged hinT on beads, sucA-AMP 470 nM, GMP up to 11.75 μM, TBS with Triton X-100, 1 mM DTT, 4 °C; competitive
T1 construct: gene HINT1
T1 sequence (P49773 1-126 H112N): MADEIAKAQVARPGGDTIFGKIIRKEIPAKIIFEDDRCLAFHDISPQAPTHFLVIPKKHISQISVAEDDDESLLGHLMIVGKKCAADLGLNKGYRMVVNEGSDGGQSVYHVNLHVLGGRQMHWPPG

[2] = target: T2, T. marianensis hinT H100N (Tm hinT^HN) (Thermaerobacter marianensis, UniProt E6SKA2, H100N); test: isothermal titration calorimetry
T2 construct: gene Tmar_2180; expressed from pProEx in E. coli BL21, 6xHis cut by TEV, SEC

[3] = target: T1, H. sapiens hinT H112N (human hinT^HN); test: isothermal titration calorimetry
[4] = target: T3, E. coli hinT H101N (Ec hinT^HN) (Escherichia coli, UniProt P0ACE7, H101N); test: isothermal titration calorimetry
T3 construct: expressed from pProEx in E. coli BL21, 6xHis cut by TEV, SEC; ATG replaces native TTG start
T3 sequence (P0ACE7 1-119 H101N): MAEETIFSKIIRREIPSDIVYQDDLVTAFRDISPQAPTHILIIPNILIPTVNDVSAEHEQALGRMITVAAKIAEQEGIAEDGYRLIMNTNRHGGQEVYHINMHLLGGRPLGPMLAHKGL

Structure (SMILES)	competition pulldown with sucA-AMP, α-AMP immunoblot [1]	Kd [2] [µM]	Kd [3] [nM]	Kd [4] [µM]
Nc1nc2c(ncn2[C@@H]2O[C@H](COP(=O)(O)O)[C@@H](O)[C@H]2O)c(=O)[nH]1 [GMP]	increasing concentrations of GMP showed weaker competition with AMPylated proteins for binding to Hs hinT^HN			
Nc1ncnc2c1ncn2[C@@H]1O[C@H](COP(=O)(O)O)[C@@H](O)[C@H]1O [AMP]		3	279	69
